One assay addresses PTGER2 (EP2) (Homo sapiens (Human), UniProt P43116). Put plainly: hEP2 b-arrestin assay (PathHunter HEK 293 PTGER2 b-arrestin cells). The format is cell-based. As to conditions: hEP2 b-arrestin assay (values without asterisk). The method in brief:
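HEK293 cells expressing ProLink-tagged EP2 and EA-fused β-arrestin 2 (enzyme fragment complementation) were seeded 24 h, pre-incubated with compound 15 min at 37 °C, then stimulated with 5 μM PGE2 (final) for 120 min.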

A further assay concerns the target PTRGER4 (EP4) (Homo sapiens (Human), UniProt P35408). Nature of the assay: hEP4 b-arrestin assay (PathHunter HEK 293 PTGER4 b-arrestin cells). The settings on record: hEP4 b-arrestin assay (values without asterisk). The format is cell-based. Put shortly:
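Stably transfected HEK293 cells carrying EP4–ProLink and β-arrestin 2–EA (β-gal fragment complementation), pre-incubated with compound 15 min at 37 °C, then stimulated with PGE2 (20 nM final) for 120 min at 37 °C. Chemiluminescence read after 1 h detection reagent at room temperature; activity per concentration expressed as percent of DMSO control.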

Sequence of PTRGER4 (EP4) (P35408 whole entry, looked up, the tested form may be a part): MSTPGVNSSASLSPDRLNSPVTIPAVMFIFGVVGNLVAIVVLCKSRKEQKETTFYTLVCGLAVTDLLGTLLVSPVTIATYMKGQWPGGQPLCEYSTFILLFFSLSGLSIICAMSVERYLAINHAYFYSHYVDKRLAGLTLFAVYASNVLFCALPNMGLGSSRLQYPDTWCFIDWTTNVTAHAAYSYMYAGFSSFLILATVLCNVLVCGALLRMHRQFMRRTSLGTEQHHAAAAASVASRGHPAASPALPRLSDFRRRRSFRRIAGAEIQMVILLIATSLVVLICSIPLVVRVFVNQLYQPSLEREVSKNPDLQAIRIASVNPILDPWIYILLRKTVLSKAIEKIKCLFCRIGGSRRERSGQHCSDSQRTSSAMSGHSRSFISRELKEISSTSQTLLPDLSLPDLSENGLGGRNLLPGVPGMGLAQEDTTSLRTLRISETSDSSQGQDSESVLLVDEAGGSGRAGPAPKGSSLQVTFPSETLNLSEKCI
Sequence of PTGER2 (EP2) (P43116 whole entry, the tested form may be a part): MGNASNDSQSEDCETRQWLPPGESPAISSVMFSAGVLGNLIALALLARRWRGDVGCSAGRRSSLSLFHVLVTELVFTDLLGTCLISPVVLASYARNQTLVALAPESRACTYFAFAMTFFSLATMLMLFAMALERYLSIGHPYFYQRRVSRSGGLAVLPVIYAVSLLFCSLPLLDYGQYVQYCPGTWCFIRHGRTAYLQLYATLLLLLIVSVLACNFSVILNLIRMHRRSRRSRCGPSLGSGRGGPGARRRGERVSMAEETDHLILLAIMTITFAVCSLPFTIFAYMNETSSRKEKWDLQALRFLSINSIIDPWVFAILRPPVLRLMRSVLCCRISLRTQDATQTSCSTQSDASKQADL

For `CCOc1cc(-c2cc(NCCn3c(C#N)cc4c(OC)ccc(F)c43)ncn2)ccc1NC(=O)C(=O)O` [Example 853, N-(4-{6-[2-(2-Cyano-7-fluoro-4-methoxy-indol-1-yl)-ethylamino]-pyrimidin-4-yl}-2-ethoxy-phenyl)-oxalamic acid], the IC50 (as a rule, the point on the concentration scale where inhibition reaches its midpoint) against PTGER2 (EP2) is 5 nM; against PTRGER4 (EP4), 1 nM.

Take `CCOc1cc(-c2cc(NCCn3c(C#N)cc4c(OC)ccc(F)c43)ncn2)sc1CC(=O)O` [Example 854, (5-{6-[2-(2-Cyano-7-fluoro-4-methoxy-indol-1-yl)-ethylamino]-pyrimidin-4-yl}-3-ethoxy-thiophen-2-yl)-acetic acid]: the figures for the concentration for half-maximal inhibition (IC50) against PTGER2 (EP2) and against PTRGER4 (EP4) were 232 nM and 193 nM, respectively.

`COc1cc(-c2cc(NCCn3c(C#N)cc4c(OC)ccc(F)c43)ncn2)ccc1-c1cc(O)no1` [Example 855, 7-Fluoro-1-(2-{6-[4-(3-hydroxy-isoxazol-5-yl)-3-methoxy-phenyl]-pyrimidin-4-ylamino}-ethyl)-4-methoxy-1H-indole-2-carbonitrile]: the IC50 against PTGER2 (EP2) turned out to be 6 nM; at PTRGER4 (EP4), 3 nM.

With `N#Cc1cc2c(Cl)cc(Cl)cc2n1CCNc1cc(-c2cc(C(F)(F)F)c(C(=O)O)s2)ncn1` [Example 856, 5-{6-[2-(4,6-Dichloro-2-cyano-indol-1-yl)-ethylamino]-pyrimidin-4-yl}-3-trifluoromethyl-thiophene-2-carboxylic acid], the figures for the IC50 on PTGER2 (EP2) and against PTRGER4 (EP4) were 8 nM and 52 nM, respectively.

In the case of `Cc1c(F)c(F)cc2c1cc(C#N)n2CCNc1cc(-c2cc(C(F)(F)F)c(C(=O)O)s2)ncn1` [Example 857, 5-{6-[2-(2-Cyano-5,6-difluoro-4-methyl-indol-1-yl)-ethylamino]-pyrimidin-4-yl}-3-trifluoromethyl-thiophene-2-carboxylic acid], the IC50 amounted to 58 nM against PTGER2 (EP2) and 212 nM on PTRGER4 (EP4).

On to `Cc1ccc(F)c2c1cc(C#N)n2CCNc1cc(-c2cc(C(F)(F)F)c(C(=O)O)s2)ncn1` [Example 858, 5-{6-[2-(2-Cyano-7-fluoro-4-methyl-indol-1-yl)-ethylamino]-pyrimidin-4-yl}-3-trifluoromethyl-thiophene-2-carboxylic acid], for which the IC50 on PTGER2 (EP2) was 22 nM; on PTRGER4 (EP4) it was 4 nM.

For the compound `N#Cc1cc2cccc(F)c2n1CCNc1cc(-c2cc(C(F)(F)F)c(C(=O)O)s2)ncn1` [Example 859, 5-{6-[2-(2-Cyano-7-fluoro-indol-1-yl)-ethylamino]-pyrimidin-4-yl}-3-trifluoromethyl-thiophene-2-carboxylic acid], the IC50 is 6 nM on PTGER2 (EP2) and 60 nM against PTRGER4 (EP4).

On to `COc1ccc(F)c2c1cc(C#N)n2CCNc1cc(-c2ccc(C3(OC)COC3)s2)ncn1` [Example 860, 7-Fluoro-4-methoxy-1-(2-{6-[5-(3-methoxy-oxetan-3-yl)-thiophen-2-yl]-pyrimidin-4-ylamino}-ethyl)-1H-indole-2-carbonitrile], for which the IC50 at PTGER2 (EP2) amounted to 421 nM; at PTRGER4 (EP4), 121 nM.

As for `CCOc1cc(-c2cc(NCCn3c(C#N)cc4c(OC)ccc(F)c43)ncn2)ccc1NCC(=O)O` [Example 861, (4-{6-[2-(2-Cyano-7-fluoro-4-methoxy-indol-1-yl)-ethylamino]-pyrimidin-4-yl}-2-ethoxy-phenylamino)-acetic acid], the IC50 on PTGER2 (EP2) came out at 5 nM; on PTRGER4 (EP4), 2 nM.

With `COc1ccc(F)c2c1cc(C#N)n2CCNc1cc(-c2ccc(-c3c[nH]c(C4CC4)n3)cc2)ncn1` [Example 863, 1-(2-{6-[4-(2-Cyclopropyl-1H-imidazol-4-yl)-phenyl]-pyrimidin-4-ylamino}-ethyl)-7-fluoro-4-methoxy-1H-indole-2-carbonitrile], the IC50 against PTGER2 (EP2) was 5 nM; at PTRGER4 (EP4), 3 nM.

`CCOc1cc(-c2cc(NCCn3c(C)cc4c(OC)cc(Cl)c(F)c43)ncn2)sc1C(=O)O` [Example 864, 5-{6-[2-(6-Chloro-7-fluoro-4-methoxy-2-methyl-indol-1-yl)-ethylamino]-pyrimidin-4-yl}-3-ethoxy-thiophene-2-carboxylic acid]: the IC50 amounted to 3 nM at PTGER2 (EP2) and 5 nM against PTRGER4 (EP4).

As for `CCOc1cc(-c2cc(NCCn3c(C#N)cc4c(OC)cccc43)ncn2)ccc1NCC(=O)O` [Example 865, (4-{6-[2-(2-Cyano-4-methoxy-indol-1-yl)-ethylamino]-pyrimidin-4-yl}-2-ethoxy-phenylamino)-acetic acid], the IC50 is 7 nM at PTGER2 (EP2) and 5 nM against PTRGER4 (EP4).

As to `COc1ccc(F)c2c1cc(C#N)n2CCNc1cc(-c2ccc(O)c(OC(F)(F)F)c2)ncn1` [Example 866, 7-Fluoro-1-{2-[6-(4-hydroxy-3-trifluoromethoxy-phenyl)-pyrimidin-4-ylamino]-ethyl}-4-methoxy-1H-indole-2-carbonitrile], the IC50 against PTGER2 (EP2) was determined as 8 nM; against PTRGER4 (EP4), 5 nM.

On to `COc1ccc(F)c2c1cc(C#N)n2CCNc1cc(-c2ccc(O)c(Cl)c2)ncn1` [Example 867, 1-{2-[6-(3-Chloro-4-hydroxy-phenyl)-pyrimidin-4-ylamino]-ethyl}-7-fluoro-4-methoxy-1H-indole-2-carbonitrile], for which the values for the IC50 on PTGER2 (EP2) and at PTRGER4 (EP4) were 8 nM and 6 nM, respectively.

As to `CCOc1cc(-c2cc(NCCn3c(C)cc4c(Cl)cc(Cl)c(F)c43)ncn2)sc1C(=O)O` [Example 868, 5-{6-[2-(4,6-Dichloro-7-fluoro-2-methyl-indol-1-yl)-ethylamino]-pyrimidin-4-yl}-3-ethoxy-thiophene-2-carboxylic acid], the figures for the IC50 at PTGER2 (EP2) and at PTRGER4 (EP4) were 1 nM and 7 nM, respectively.

On to `COc1cc(Cl)cc2c1cc(C)n2CCNc1cc(-c2cc(OC(C)C)c(C(=O)O)s2)ncn1` [Example 869, 5-{6-[2-(6-Chloro-4-methoxy-2-methyl-indol-1-yl)-ethylamino]-pyrimidin-4-yl}-3-isopropoxy-thiophene-2-carboxylic acid], for which the IC50 is 2 nM against PTGER2 (EP2) and 8 nM at PTRGER4 (EP4).

In the case of `CCOc1cc(-c2cc(NCCn3c(C#N)cc4c(OC)cccc43)ncn2)ccc1OCC(=O)O` [Example 870, (4-{6-[2-(2-Cyano-4-methoxy-indol-1-yl)-ethylamino]-pyrimidin-4-yl}-2-ethoxy-phenoxy)-acetic acid], the concentration for half-maximal inhibition (IC50) on PTGER2 (EP2) came out at 8 nM; at PTRGER4 (EP4), 12 nM.

Turning to `CCOc1cc(-c2cc(NCCn3c(C)cc4c(OC)cc(Cl)cc43)ncn2)sc1C(=O)O` [Example 871, 5-{6-[2-(6-Chloro-4-methoxy-2-methyl-indol-1-yl)-ethylamino]-pyrimidin-4-yl}-3-ethoxy-thiophene-2-carboxylic acid], the IC50 at PTGER2 (EP2) came out at 2 nM; at PTRGER4 (EP4), 16 nM.

As for `CCCCOc1cc(-c2cc(NCCn3c(C#N)cc4c(OC)ccc(F)c43)ncn2)ccc1C(=O)O` [Example 872, 2-Butoxy-4-{6-[2-(2-cyano-7-fluoro-4-methoxy-indol-1-yl)-ethylamino]-pyrimidin-4-yl}-benzoic acid], the IC50 was determined as 12 nM against PTGER2 (EP2) and 18 nM against PTRGER4 (EP4).

In the case of `CCOc1cc(-c2cc(NCCn3c(C#N)cc4c(OC)ccc(F)c43)ncn2)ccc1CC(=O)O` [Example 873, (4-{6-[2-(2-Cyano-7-fluoro-4-methoxy-indol-1-yl)-ethylamino]-pyrimidin-4-yl}-2-ethoxy-phenyl)-acetic acid], the values for the IC50 at PTGER2 (EP2) and on PTRGER4 (EP4) were 77 nM and 18 nM, respectively.

As for `COc1ccc(F)c2c1cc(C)n2CCNc1cc(-c2ccc(O)c(OC(F)(F)F)c2)ncn1` [Example 874, 4-{6-[2-(7-Fluoro-4-methoxy-2-methyl-indol-1-yl)-ethylamino]-pyrimidin-4-yl}-2-trifluoromethoxy-phenol], the IC50 against PTGER2 (EP2) stood at 4 nM; against PTRGER4 (EP4), 19 nM.

For `CCOc1cc(-c2cc(NCCn3c(C)c(F)c4ccccc43)ncn2)sc1C(=O)O` [Example 875, 3-Ethoxy-5-{6-[2-(3-fluoro-2-methyl-indol-1-yl)-ethylamino]-pyrimidin-4-yl}-thiophene-2-carboxylic acid], the IC50 against PTGER2 (EP2) was 4 nM; against PTRGER4 (EP4) it was 26 nM.

Turning to `CCOc1cc(-c2cc(NCCn3c(C#N)c(F)c4ccccc43)ncn2)sc1C(=O)O` [Example 876, 5-{6-[2-(2-Cyano-3-fluoro-indol-1-yl)-ethylamino]-pyrimidin-4-yl}-3-ethoxy-thiophene-2-carboxylic acid], the half-inhibitory concentration (IC50) is 4 nM at PTGER2 (EP2) and 32 nM on PTRGER4 (EP4).

As for `CCOc1cc(-c2cc(NCCn3c(C)cc4c(C)ccc(F)c43)ncn2)ccc1NCC(=O)O` [Example 877, (2-Ethoxy-4-{6-[2-(7-fluoro-2,4-dimethyl-indol-1-yl)-ethylamino]-pyrimidin-4-yl}-phenylamino)-acetic acid], the IC50 at PTGER2 (EP2) worked out at 5 nM; at PTRGER4 (EP4), 34 nM.

For the compound `CCCCOc1cc(-c2cc(NCCn3c(C)cc4c(OC)cc(F)c(F)c43)ncn2)ccc1C(=O)O` [Example 878, 2-Butoxy-4-{6-[2-(6,7-difluoro-4-methoxy-2-methyl-indol-1-yl)-ethylamino]-pyrimidin-4-yl}-benzoic acid], the IC50 at PTGER2 (EP2) stood at 1 nM; against PTRGER4 (EP4) it was 22 nM.

For the compound `Cc1cccc2c1cc(C)n2CCNc1cc(-c2cc(OC(C)C)c(C(=O)O)s2)ncn1` [Example 879, 5-{6-[2-(2,4-Dimethyl-indol-1-yl)-ethylamino]-pyrimidin-4-yl}-3-isopropoxy-thiophene-2-carboxylic acid], the IC50 on PTGER2 (EP2) was found to be 4 nM; at PTRGER4 (EP4), 36 nM.

As to `CCOc1cc(-c2cc(NCCn3c(C)cc4c(OC)cccc43)ncn2)ccc1-c1noc(=O)[nH]1` [Example 881, 3-(2-Ethoxy-4-{6-[2-(4-methoxy-2-methyl-indol-1-yl)-ethylamino]-pyrimidin-4-yl}-phenyl)-[1,2,4]oxadiazol-5(4H)-one], the IC50 on PTGER2 (EP2) amounted to 5 nM; at PTRGER4 (EP4) it was 41 nM.
